Results from US20250325524A1, “COMPOSITIONS AND METHODS FOR TREATING RENAL INJURY” (CASE WESTERN RESERVE UNIVERSITY, priority 2018, published 2025).

Tests used:
[1] = test system: PGE2 receptors (EP1, EP2, EP3 and EP4) and adenosine receptor (A2A); assay: renal IRI model: PGE2 receptors (EP1-EP4) and adenosine A2A receptor levels; type: in vivo, mice
Experimental: (§1) Mice were anesthetized with isoflurane using a vaporizer and placed on a heating pad to maintain their body temperature at 37° C. Both renal arteries were identified through dorsal incisions and clamped for 20, 30, 35, or 37 minutes. Reperfusion was confirmed visually upon release of the clamps. Surgical wounds were closed, and mice were administered 1 mL of saline i.p. The mice were kept in a warm incubator until they regained consciousness and were allowed to recover with ad libitum access to food and water. […] Serum and kidney tissue were collected 24 hours after renal IRI.
PGE2 receptors (EP1, EP2, EP3 and EP4) and adenosine receptor (A2A) mRNA levels were determined by real-time PCR with SYBR green PCR Master Mix and the primers listed in Table 1. Their protein levels were determined by western blotting assay and immunofluorescence analysis.

[2] = test system: mice with ischemic AKI; assay: renal ischemia-reperfusion injury model: renal function (serum creatinine, NGAL, KIM-1); type: in vivo; details: IRI-30 min, 24 hours reperfusion
Experimental: as §1
Renal function was assessed by determining the serum levels of creatinine (KB02-H1; Arbor Assays), Lipocalin-2 (NGAL; MLCN20; R&D Systems), and kidney injury molecule-1 (KIM-1; MKM100; R&D Systems) after reperfusion for 24 h.

[3] = test system: HMGB1 and proinflammatory cytokines; assay: renal IRI model: HMGB1 and cytokine levels; type: in vivo; details: mice
Experimental: as §1
Inflammatory cytokine mRNA and protein levels were measured by real-time PCR and ELISA, respectively. Kidney tissue and serum were harvested after reperfusion for 24 h. Total RNA was extracted from frozen kidney tissue using TRIzol reagent (15596018; Invitrogen), according to the manufacturer's protocol. RNA was converted to cDNA using oligo-dT primers. IL-17, TNF-α, and […] levels were determined by real-time PCR with SYBR green PCR Master Mix and the primers listed in Table 1. For ELISA, frozen kidney tissues were homogenized in phosphate buffer. Serum IL-17 (M1700; R&D Systems), TNF-α (MTAOOB; R&D Systems), and IL-10β (MLBOOC; R&D Systems) were measured using commercial ELISA kits according to the manufacturer's instructions.

[4] = IRI mice, pretreatment, 0.5 hours, mRNA in kidney tissue
[5] = kidney tissue, in comparison to sham and to IRI mice
[6] = 5 mg/kg 1 hour before, immediately after, and 12 hours after IRI, vs IRI-vehicle
[7] = real-time PCR and ELISA, 3 doses 5 mg/kg
[8] = real-time PCR at POD1, vs IRI-vehicle

## CCCC[S+]([O-])c1sc2nc(-c3cccs3)cc(-c3ccccc3)c2c1N (stereo not drawn) [SW033291]
[1]; [4]
  increase of A2A receptor over baseline: 1.6 fold
  increase of EP4 receptor over baseline: 2.4 fold
[1]; kidney tissue, IRI mice
  EP1 receptor mRNA: without effecting
  EP2 receptor mRNA: without effecting
  EP3 receptor mRNA: without effecting
[1]; [5]
  increase of EP4 receptor mRNA and protein levels: up to 2.3 fold
  levels of the adenosine A2A receptor protein: induced
[2]; [6]
  serum KIM-1: significantly reducing
  serum NGAL: significantly reducing
  serum creatinine: significantly reducing
[2]; 3 doses of 5 mg/kg
  renal protection from IRI (serum NGAL, creatinine, KIM-1): markedly protected kidney from IRI
[3]; ELISA, 3 doses 5 mg/kg
  IL-1B protein: reductions
[3]; kidney tissue, western blot, 3 doses 5 mg/kg
  reduction of HMGB1 protein level compared to the IRI-vehicle group: 30%
[3]; [7]
  induction of IL-17: blockade of induction
  induction of TNF-α: blockade of induction
[3]; [8]
  IL-24 mRNA: significantly induces
  anti-inflammatory cytokine IL-4 mRNA: significantly induces
  anti-inflammatory cytokine IL-10 mRNA: significantly induces
